# Results published in PMC2707266 (2009).
# Where two headings read alike, the source gives them in different places.
# Experiments:
# Format in all cases: biochemical
# KPC-2 [1] = target: T1, KPC-2 (Klebsiella pneumoniae, UniProt Q9F663); assay: nitrocefin hydrolysis at […] nm, […] min pre-incubation
# KPC-2 [2] = target: T1, KPC-2; assay: steady-state kinetics of hydrolysis at […] nm
# KPC-2 [3] = target: T1, KPC-2; assay: nitrocefin hydrolysis at […] nm, […] min pre-incubation; remark: listed apart in the source
# T1 sequence (Q9F663 25-293, looked up): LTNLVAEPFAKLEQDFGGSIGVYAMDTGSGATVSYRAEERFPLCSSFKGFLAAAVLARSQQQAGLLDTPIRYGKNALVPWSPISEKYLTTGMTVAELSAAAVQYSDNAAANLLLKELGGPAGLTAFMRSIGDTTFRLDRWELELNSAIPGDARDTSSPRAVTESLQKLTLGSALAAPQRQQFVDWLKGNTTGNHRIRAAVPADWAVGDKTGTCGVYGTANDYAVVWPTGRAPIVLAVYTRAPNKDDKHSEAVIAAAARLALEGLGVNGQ
smiles,measurement,setting,value
O=C(O)[C@H]1/C(=C/CO)O[C@@H]2CC(=O)N21 [clavulanate],IC50,KPC-2 [1],6.5 µM
O=C(Cc1cccs1)N[C@@H]1C(=O)N2C(C(=O)O)=C(/C=C/c3ccc([N+](=O)[O-])cc3[N+](=O)[O-])CS[C@H]12 [nitrocefin],Km,KPC-2 [2],52 µM
C[C@]1(Cn2ccnn2)[C@H](C(=O)O)N2C(=O)C[C@H]2S1(=O)=O [tazobactam],IC50,KPC-2 [3],9.2 µM
